Legend:
[1] = molecular target: human leukocyte elastase (RPMI 1788); experiment: Elastase activity in human leukocytes RPMI 1788; format: biochemical
[2] = molecular target: IC-21 macrophage elastase; experiment: Elastase activity in IC-21 macrophages; format: biochemical, mouse; conditions: 120 min
[3] = molecular target: J774-A1 prostaglandin cyclooxygenase; experiment: Prostaglandin cyclooxygenase activity in J774-A1 macrophages; format: cell-based, mouse; conditions: 60 min; read-out: IC50 Cyclo-oxygenase J774-A1
Text: Few reports in the literature indicate interaction at these receptor sites other than by peptides or antibodies. […] Blocking these receptors is desirable because the entire inflammation cascade of events is triggered by the early release of TNFa and IL-1. […] Radioisotopes were obtained from New England Nuclear [Dupont, Boston, MA] and substrates and co- factors were obtained from Sigma Chemical Co. [St. Louis, MO]. […] Cell lines were obtained from American Type Culture Collection [Rockville, MD]. In Vivo Tests Anti-inflammatory screen in mice: Male CF male mice weighing 28-32g obtained from Jackson Lab. [Bar Harbor, […]] were used to screen agents at 8 or 16 mg/kg intraperitoneal [I.P.] x 2 administered 3 hr and 30 min prior to administering the irritant, according to Winter's protocol. Evaluation of the induced edema was made by injecting 2% carrageenan in 0.9% saline into the plantar region of the foot. The opposite foot injected with 0.9% isotonic saline was used as a base line. […] Salmonella abortus equi [Lot # 69F4003] […] Drugs from 2 to 16 mg/kg, I.P. were administered 2 hr prior and 2 hr post-injection of the LPS and then subsequently for every 24 hr for the length ofthe animals' lives. Deaths were recorded every 12 hr and continued for 96 hr. […] In vitro TNFa andIL-1 Measurements and Cellular Regulation IC-21 mouse macrophages were maintained in RPMI-1640 + 10% FCS + P/S. After the cells had grown to confluency, E. coli LPS at 10 Ixg/ml was added to the medium. Agents were incubated at 12.5 to 100 µM final concentration for 18 hr. The medium (100 btl) was collected for TNFCt determinations. Interleukin-1 [IL-1] release was determined using P388D1 cells which were maintained in RPMI-1640 + 10% FCS + P/S. The L929 bioassay was used to quantitate the TNF and the IL-1 levels. The L929 mouse fibroblasts were grown in DMEM + 10% FCS + P/S to confluency in 96 well plates and incubated with 100 tl ofmedium from […] or P388D cells after 18 hr. The cells were stained with 0.2% crystal violet in 20% MeOH and read at 580 nm using a Molecular Devices scanner (SOFT-max program). High Affinity Binding to Receptors on L929-106 Cells Two laCi of 125I-TNFct (human recombinant, 30 mCi/tg New England Nuclear) or 125I-IL-1 (70-120[.t Ci/lxg,New England Nuclear) was added to confluency L929 cells for 90 min or 5 hr, respectively with 25, 50 and 100 tM of the test compounds 12]. The cells were washed repeatedly with isotonic saline, pH.7.2 and aliquots counted. Prostaglandin cylcooxygenase activity Mouse J774AI macrophages maintained in Dulbecco's modified Eagle's medium + 15% FCS + P/S. Cells (5 x 106) were incubated with agents (5 to 100 ].tM final concentration) and 3H-arachidonic acid (100 Ci/mol) for 60 min at 37C in a CO2 incubator. The reaction was terminated with 2N HCI, the mixture extracted 2 X with ether, and the organic layer evaporated.

Row | Compound | IC50 ([1]; 60 min) [µM] | IC50 ([1]; 120 min) [µM] | IC50 [2] [µM] | IC50 [3] [µM]
1 | COc1c2cc(S(=O)(=O)[O-])cc1Cc1cc(S(=O)(=O)[O-])cc(c1OC)Cc1cc(S(=O)(=O)[O-])cc(c1OC)Cc1cc(S(=O)(=O)[O-])cc(c1OC)Cc1cc(S(=O)(=O)[O-])cc(c1OC)Cc1cc(S(=O)(=O)[O-])cc(c1OC)C2.[Na+].[Na+].[Na+].[Na+].[Na+].[Na+] [Compound 6] | 275 | 162 | – | –
2 | CC(=O)Oc1c2cc(S(=O)(=O)[O-])cc1Cc1cc(S(=O)(=O)[O-])cc(c1OC(C)=O)Cc1cc(S(=O)(=O)[O-])cc(c1OC(C)=O)Cc1cc(S(=O)(=O)[O-])cc(c1OC(C)=O)Cc1cc(S(=O)(=O)[O-])cc(c1OC(C)=O)Cc1cc(S(=O)(=O)[O-])cc(c1OC(C)=O)Cc1cc(S(=O)(=O)[O-])cc(c1OC(C)=O)Cc1cc(S(=O)(=O)[O-])cc(c1OC(C)=O)C2.[Na+].[Na+].[Na+].[Na+].[Na+].[Na+].[Na+].[Na+] [Compound 8] | – | – | 111 | 33.3
